Reference: paper PMC11597210, “A Comprehensive Evaluation of a Coumarin Derivative and Its Corresponding Palladium Complex as Potential Therapeutic Agents in the Treatment of Gynecological Cancers: Synthesis, Characterization, and Cytotoxicity” (Pharmaceutics, 2024)

What was measured:
[1] = molecular target: T1, human serum albumin (HSA) (Homo sapiens, UniProt P02768); assay: Spectrofluorimetric titration, HSA fluorescence quenching; format: binding; details: for KSV (Stern–Volmer quenching constant) / kq (quenching rate constant): PBS, 2.0 µM HSA; for ΔH° of HSA binding / ΔS° of HSA binding: van't Hoff, 296–310 K
T1 construct: purchased Sigma-Aldrich
Protocol: The fluorescence spectroscopy method was used to examine the possible binding ways of human serum albumin (HSA) with the investigated compounds. […] The fluorescence of HSA was recorded at an excitation wavelength of 290 nm, while the recording range was set at 300–500 nm. The gradual decrease in the maximum emission intensity of the HSA with an increasing concentration of all investigated compounds was monitored at about 330 nm.
Fluorescence quenching parameters were determined using the Stern–Volmer equation (Equation (2)):(2) I0/I=1+kqτ0Q=1+KSVQ.
The notations in the previous equation include I0 and I as HSA fluorescence intensities in the absence and presence of the quencher, while KSV and kq are the Stern–Volmer quenching constant and the quenching rate constant of HSA, τ0 is the fluorophore lifetime of HSA (in the absence of the quencher), and [Q] is the concentration of the quencher. The binding constant (Kb) and the number of binding sites (n) were calculated using the Hill equation (Equation (3)):(3) logI0−I/I=logKb+nlogQ. where I0 and I represent the HSA fluorescence intensities in the absence and presence of the quencher, and [Q] is the concentration of the quencher.
The thermodynamic parameters ΔH°, ΔS°, and ΔG° were calculated using the following equations:(4) lnKb=−∆H^°/RT+∆S^°/R (5) ∆G^°=∆H^°−T∆S^°
To obtain information on the quenching, binding, and thermodynamic parameters for the interaction of the ligand and complex (CL and CC) towards human serum albumin (HSA), spectrofluorimetric investigations were carried out. All experiments were performed under physiological conditions in phosphate-buffered saline (PBS) and at different temperatures (296 K, 303 K, and 310 K).

HeLa cells = assay: CFSE staining of cell proliferation, flow cytometry; format: cell-based, human; details: IC50 dose, 72 h
Protocol: To analyze the distribution of cells in the different phases of the cell cycle using flow cytometry, cells were collected at the end of the treatment and processed as previously described. To detect the presence of apoptotic cells, the treated HeLa cells were double-stained with Annexin V-FITC/PI in Annexin V-binding buffer according to the manufacturer’s instructions. For caspase activation, cells were incubated with FITC-labeled pan-caspase inhibitor ApoStat (0.5 μg/mL) for 30 min at 37 °C. The cells were then washed, resuspended in PBS, and analyzed using flow cytometry. The effect of the compounds on cell proliferation was analyzed via CFSE staining using flow cytometry in the same manner as previously described. DAF-FM was used to determine the intracellular production of nitric oxide in the treated HeLa cells, DHE was used to detect intracellular superoxide and hydrogen peroxide, and DHR123 was used to detect the cumulative intracellular production of reactive oxygen species and nitrogen species. These assays were performed as described in previously published studies. All flow cytometry data were obtained in a CytoFLEX cytometer (Beckman Coulter, Brea, CA, USA) and analyzed using FlowJo software v10 (Tree Star, Ashland, OR, USA).

[2] = tested on: Peritoneal exudate cells (PECs); assay: Crystal violet (CV) viability assay on primary cells, 72 h; format: cell-based, C57BL/6 mice; details: mouse peritoneal exudate cells, read-out: IC50 PEC CV
Protocol: Peritoneal exudate cells (PECs) were isolated from the peritonea of 8–12-week-old C57BL/6 mice via a cavity rinse with ice-cold PBS. Cells were seeded in HEPES-buffered RPMI-1640 medium supplemented with 5% heat-inactivated FBS and antibiotics. The animals were from the animal facility of the Institute for Biological Research “Siniša Stanković” (IBISS) National Institute of the Republic of Serbia (Belgrade, Serbia). Animal handling was conducted and protocols were followed by the local Institutional Animal Care and Use Committee (IACUC) in accordance with local guidelines as well as European Community directives (EEC Directive of 1986; 86/609/EEC). The ethical approval number is 323-07-02147/2023-05.
(§1) The cells were treated with a range of CL, CC, and cisplatin concentrations for 72 h. At the end of the treatment, the cell viability was determined using MTT and crystal violet assays, as previously described. PECs were seeded at a density of 1.8 × 10^5 cells/well in 96-well plates, and two hours later, non-adherent cells were removed by washing the wells with PBS. The remaining adherent cells were treated the same way as the tumor cells. The PEC viability was estimated after 72 h of treatment using the CV assay only.

[3] = tested on: MCF7 (human breast adenocarcinoma cells); assay: Crystal violet (CV) viability assay, 72 h; format: cell-based; details: MCF7, 72 h, mean ± SD
Protocol: (§2) HeLa (human cervical adenocarcinoma cells), A2780 (human ovarian carcinoma cells), MCF7 (human breast adenocarcinoma cells), and HCT116 (human colorectal carcinoma cells) were purchased from American Type Culture Collection (ATCC, Rockville, MD, USA). HeLa, MCF-7, and HCT116 cells were cultivated in HEPES-buffered RPMI-1640, while A2780 cells were cultivated in DMEM. The media were supplemented with 10% heat-inactivated FBS and antibiotics (100 units/mL penicillin and 100 μg/mL streptomycin). The cells were grown at 37 °C in a humidified atmosphere with 5% CO2. For the viability assays, HeLa (3 × 10^3/well), A2780 (8 × 10^3/well), MCF7 (7 × 10^3/well), and HCT116 (6 × 10^3/well) cells were seeded in adherent flat-bottom 96-well plates. For the flow cytometric analyses, HeLa cells were seeded at 8 × 10^4 in 6-well plates.
as §1

[4] = tested on: HCT116 (human colorectal carcinoma cells); assay: Crystal violet (CV) viability assay, 72 h; format: cell-based; details: HCT-116, HCT116, 72 h, mean ± SD
Protocol: as §2, §1

[5] = tested on: HeLa (human cervical adenocarcinoma cells); assay: Crystal violet (CV) viability assay, 72 h; format: cell-based
Protocol: as §2, §1

[6] = tested on: A2780 (human ovarian carcinoma cells); assay: Crystal violet (CV) viability assay, 72 h; format: cell-based; details: A2780, 72 h, mean ± SD
Protocol: as §2, §1

[7] = tested on: MCF7 (human breast adenocarcinoma cells); assay: MTT viability assay, 72 h; format: cell-based; details: MCF7, 72 h, mean ± SD
Protocol: as §2, §1

[8] = tested on: HCT116 (human colorectal carcinoma cells); assay: MTT viability assay, 72 h; format: cell-based; details: HCT-116, HCT116, 72 h, mean ± SD
Protocol: as §2, §1

[9] = tested on: HeLa (human cervical adenocarcinoma cells); assay: MTT viability assay, 72 h; format: cell-based; details: mean ± SD of three experiments
Protocol: as §2, §1

[10] = tested on: A2780 (human ovarian carcinoma cells); assay: MTT viability assay, 72 h; format: cell-based; details: A2780, 72 h, mean ± SD
Protocol: as §2, §1

T1 sequence (P02768 25-609): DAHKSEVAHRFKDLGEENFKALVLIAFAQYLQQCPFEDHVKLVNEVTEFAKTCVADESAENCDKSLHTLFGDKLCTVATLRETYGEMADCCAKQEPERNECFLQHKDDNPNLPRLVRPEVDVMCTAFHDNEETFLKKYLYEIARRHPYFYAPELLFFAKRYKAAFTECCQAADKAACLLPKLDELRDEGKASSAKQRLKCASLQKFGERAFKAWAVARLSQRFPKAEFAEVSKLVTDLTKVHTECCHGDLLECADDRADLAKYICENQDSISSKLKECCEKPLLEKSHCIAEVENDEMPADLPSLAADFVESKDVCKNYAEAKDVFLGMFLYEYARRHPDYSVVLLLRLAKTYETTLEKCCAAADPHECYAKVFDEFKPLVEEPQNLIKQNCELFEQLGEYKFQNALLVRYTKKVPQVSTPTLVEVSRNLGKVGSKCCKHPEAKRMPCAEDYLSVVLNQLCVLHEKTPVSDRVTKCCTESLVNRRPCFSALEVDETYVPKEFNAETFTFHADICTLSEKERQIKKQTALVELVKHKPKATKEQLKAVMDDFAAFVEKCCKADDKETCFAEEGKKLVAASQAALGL

## COc1cc([N+]2=C(C)c3c(c4ccc(OC(C)=O)cc4oc3=O)[O][Pd-2]23[O]c2c(c(=O)oc4cc(OC(C)=O)ccc24)C(C)=[N+]3c2ccc(O)c(OC)c2)ccc1O [CC, Bis-3-(1-((4-hydroxy-3-methoxyphenyl)amino)ethylidene)-2,4-dioxochroman-7-yl acetate palladium(II) complex]
[1]; 296 K
  n (HSA), number of binding sites: 1.07
  ΔG° of HSA binding: -7.921 kcal/mol
  KSV (Stern–Volmer quenching constant): 295000 M⁻¹
  kq (quenching rate constant): 2.95e+13 M⁻¹
[1]; 303 K
  n (HSA), number of binding sites: 1.06
  ΔG° of HSA binding: -7.99 kcal/mol
  KSV (Stern–Volmer quenching constant): 272000 M⁻¹
  kq (quenching rate constant): 2.72e+13 M⁻¹ s⁻¹
[1]; 310 K
  n (HSA), number of binding sites: 1.10
  ΔG° of HSA binding: -8.059 kcal/mol
  KSV (Stern–Volmer quenching constant): 280000 M⁻¹
  kq (quenching rate constant): 2.8e+13 M⁻¹ s⁻¹
[1]
  ΔH° of HSA binding: -5.014 kcal/mol
  ΔS° of HSA binding: −41.09 J mol^−1K^−1
HeLa cells
  effect on proliferation of HeLa cells (CFSE): does not inhibit the proliferation of HeLa cells
[2]
  IC50: 92.9 µM

## COc1cc(N/C(C)=C2/C(=O)Oc3cc(OC(C)=O)ccc3C2=O)ccc1O [CL, (E)-3-(1-((4-hydroxy-3-methoxyphenyl)amino)ethylidene)-2,4-dioxochroman-7-yl acetate]
[1]; 296 K
  n (HSA), number of binding sites: 0.66
  ΔG° of HSA binding: -4.515 kcal/mol
  KSV (Stern–Volmer quenching constant): 95600 M⁻¹
  kq (quenching rate constant): 9.56e+12 M⁻¹ s⁻¹
[1]; 303 K
  n (HSA), number of binding sites: 0.71
  ΔG° of HSA binding: -5.533 kcal/mol
  KSV (Stern–Volmer quenching constant): 76900 M⁻¹
  kq (quenching rate constant): 7.69e+12 M⁻¹ s⁻¹
[1]; 310 K
  n (HSA), number of binding sites: 1.09
  ΔG° of HSA binding: -6.551 kcal/mol
  KSV (Stern–Volmer quenching constant): 72700 M⁻¹
  kq (quenching rate constant): 7.27e+12 M⁻¹ s⁻¹
[1]
  ΔH° of HSA binding: 38.535 kcal/mol
  ΔS° of HSA binding: 608.51 J mol^−1K^−1
[3]
  IC50: 44 ± 1.7 µM
[4]
  IC50: 60.2 ± 3.8 µM
[5]; CV assay, mean ± SD of three experiments, read-out: IC50 HeLa CV
  IC50: 17.7 ± 1.2 µM
[5]; rounded IC50 used as treatment dose, assay not stated (matches CV), read-out: IC50 values on HeLa cells as used for flow cytometry treatment
  IC50: 17 µM
[6]
  IC50: 24.1 ± 1.4 µM
[7]
  IC50: 45.6 ± 3.5 µM
[8]
  IC50: 54.4 ± 4.3 µM
[9]
  IC50: 11.1 ± 0.4 µM
[10]
  IC50: 21.1 ± 1.4 µM
HeLa cells
  effect on proliferation of HeLa cells (CFSE): does not inhibit the proliferation of HeLa cells
[2]
  IC50: 96.3 µM
